Assay results from a melting point compilation (Tetko et al.; mined from patent text by program, amines drawn as free bases though some values may be those of a salt).

melting point [°C] | Compound
189 to 190 | O=C1CCC2=C(CCc3cccc(Br)c32)N1
250 to 252 | Nc1cc(O)c2c(c1)C(=O)c1cccc(O)c1C2=O
160 to 162 | Cc1c(NC(=O)c2ccc(-c3ccc(Cl)s3)cc2F)ccc2cc(CN3CCCC3)cnc12
219 to 221 | O=S(=O)(CCN1CCOCC1)Nc1cc(C(c2cc(F)ccc2F)S(=O)(=O)c2ccc(Cl)cc2)c(Cl)cn1 (centres undefined)
118 | CCOC(=O)C1CN(CC)c2nc(OC)ncc2C1=O (centres undefined)
105 to 106 | CN(CCc1ccc(O)c(O)c1)C(=O)OCc1ccccc1
143 to 144 | CC(=O)n1c(SC(F)(F)C(F)F)nc(-c2ccccc2)c1-c1ccccc1
103 to 107 | CC(=O)N(C)C(Cc1ccccc1N)c1ccccn1 (centres undefined)
98 to 99 | CCCc1c(S)ccc2c(=O)cc(C(=O)OC)oc12
190 to 195 | CCC1(C)CC2(NC(=O)N(C)C2=O)C(C)C(C)(CC)N1C (centres undefined)
196 to 197 | CCCCOc1c(CN2C(=O)c3ccccc3C2=O)n(CCC(=O)O)c(=O)c2cc(Cl)c(Cl)cc12
148 to 150 | O=S(=O)(c1ccc(Cl)cc1)C(c1cc(F)ccc1F)c1cc(NCCc2ccncc2)ncc1Cl (centres undefined)
175 to 177 | CC1(C)C(=O)Nc2cc3[nH]c(C(F)(F)F)nc3cc21
121 to 123 | CC(C)(COc1ccc(O)c(C(N)=O)c1)NCC(O)c1ccccc1 (centres undefined)
108 to 109 | CC(C)(C)c1ccc(Cn2ccc3cc(Br)ccc32)cc1
112 to 115 | Cc1cccc(O[C@@H]2CCN(S(C)(=O)=O)CC[C@H]2O)c1C (relative stereo)
140 to 142 | O=C1c2ccccc2C(=O)N1OCCCN1CCN(c2cccc(Cl)c2)CC1
162 to 164 | CC1=C(CC2=NCCN2C)CCc2ccccc21
224 to 225 | FC(F)(F)c1cc(Cl)c(-c2nc(Br)c[nH]2)c(Cl)c1
196 to 198 | COc1ccc(N2CCN(CC[C@H]3CC[C@H](NC(=O)N(C)C)CC3)CC2)c(Cl)c1Cl
108 to 110 | CC(=O)c1cccc(N2CCN(CCCCOc3ccc4ccc(=O)[nH]c4n3)CC2)c1Cl
161 | COC(=O)c1ccccc1S(=O)(=O)NC(=O)n1nc(Oc2ccccc2)n(C)c1=O
180 to 189 | O=C(C#Cc1ccc(CCN2CCCC2)cc1)Nc1ccc(-c2ccccc2)cc1

melting point [°C] | Compound
192 to 193 | Cc1ccc(NC(=O)c2ccc(CN3CCN(C)CC3)c(C(F)(F)F)c2)cc1NC(=O)N(C)c1cc(N)ncn1
242 to 243 | CNc1nc(C)c(-c2cn3cc(Cl)ccc3n2)s1
120 to 121 | CC(C)c1nc(COCc2ccccc2)n(CC2CC2)c1Sc1cc(Cl)cc(Cl)c1
165 to 169 | CNC(=O)n1cnc(C(N)=O)c1N
141 to 142 | CC(C)(C)c1cc(OCC(=O)NN)cc(C(C)(C)C)c1O
65 to 68 | c1ccc(CSc2ccccc2Cn2cncn2)cc1
130 to 132 | CC(C)c1cc(C(C)C)c(C(F)C(=O)c2ccc(C(C)C)c(OS(N)(=O)=O)c2C(C)C)c(C(C)C)c1 (centres undefined)
57 | CC(C)(C)C(O)(COc1ccc(Cl)cc1)Cn1cncn1 (centres undefined)
100 to 101 | FC(F)(F)c1ccc2nnc(-c3cccc(Cl)c3Cl)n2c1
287 to 289 | C[C@@H](n1cnc2cc(N3CCN(c4ccc([N+](=O)[O-])cc4)CC3)ccc2c1=O)[C@](O)(Cn1cncn1)c1ccc(F)cc1F
165 to 167 | CC(C)c1ccc(-c2nc(-c3cccc(C(=O)O)c3)ns2)cc1
156 to 159 | COC(=O)C1=C(C)NC(=O)N(C(C)=O)C1c1ccccc1 (centres undefined)
153 | CCOC(=O)c1c(O)c2cccnc2n(Cc2ccc(OC)cc2)c1=O
138 to 140 | COc1ccccc1N1CCN(CCN(C(=O)C2CCCCC2)c2ccccc2N)CC1
120 to 125 | CC1CC(C)CN(C(=O)c2ccc([N+](=O)[O-])cc2)C1 (centres undefined)
103 to 104 | CCCCCN(CCC12CC3CC(CC(C3)C1)C2)C(=O)NCC(C)Cc1ccncc1 (centres undefined)
222 to 224 | CC(=O)NC[C@H]1CN(c2ccc(N3CCC(C#N)(CC#N)CC3)c(F)c2)C(=O)O1
150 | Cc1cc(COc2ccc(S(=O)(=O)NC[C@@H](C(=O)NO)N3CCCCC3)cc2)c2ccccc2n1
79 to 81 | Nc1ccc(CCc2nc3ccccc3s2)cc1
90 to 92 | COc1cc(C(C)=O)cc(OC)c1O[Si](C)(C)C(C)(C)C
142 to 144 | CC1(C)C=C(CN2C/C(=C\c3ccc(F)cc3)C(=O)/C(=C/c3ccc(F)cc3)C2)C(C)(C)N1O
124 to 125 | CNC(=O)N(O)C(C)c1ccc(C(F)(F)F)cc1 (centres undefined)
85.5 | CCC(C)COC(=O)Oc1ccc(-c2ccc(OC(=O)OCC(C)CC)cc2)cc1 (centres undefined)

melting point [°C] | Compound
166 to 168 | CCOCc1nc(C(C)(C)O)c(C(=O)OCc2oc(=O)oc2C)n1Cc1ccc(-c2ccccc2-c2nnn[nH]2)cc1
> 300 | N=C(N)c1ccc(-c2ccc(-c3ccc(-c4ccc(C(=N)N)cn4)o3)o2)nc1
220 | COc1c(C)c(C(=O)c2ccc3[nH]c(=O)n(N)c(=O)c3c2)n2ccccc12
154 to 156 | CC(C)(C)c1cc(CCC(=O)O)cc(-n2nc3ccc(Sc4ccccc4)cc3n2)c1O
131 to 132 | CCN(CC)CCNc1nc2cccnc2n(-c2ccc(C)cc2)c1=O
80 to 83 | CCOC(=O)N=P(c1ccccc1)(c1ccccc1)c1ccccc1OC
105 to 106 | CC1(C)c2cc(C#N)ccc2OC1Cl (centres undefined)
124 to 125 | CCSc1cc2c(cc1OC)CCn1c-2cc2c1C(=O)N(C(C)(C)C)CCCC2
209 to 212 | Cc1cc(C(=O)Nc2ccc(S(=O)(=O)C(F)(F)F)cc2Cl)c(O)c(C(C)(C)C)c1
114 to 115 | O=C(Cn1c(-c2cccc(Cl)c2)nc2cccnc21)NCCN1CCCCC1
> 300 | CC1=NN(c2cccc(S(N)(=O)=O)c2)C(=O)C1=c1[nH]c(=c2[nH]c(=C3C(=O)N(c4cccc(S(N)(=O)=O)c4)N=C3C)c3ccccc23)c2ccccc12
200 to 203 | O=S1(=O)NC(C2CCCCC2)=Nc2cccc(-c3ccccn3)c21
> 300 | O=C(NCc1ccn(C2=CC3=C(CC2)CCc2[nH]c(=O)c(=O)n(O)c23)c1)Nc1ccc(C(=O)O)cc1
92 to 95 | CC(C)Nn1nnnc1S
152 to 153 | Nc1nc(-c2ccccn2)cc2ccccc12
188 to 190 | Cc1ccc(C)c(-c2cn(C)cc(-c3ccccc3)c2=O)c1
138 to 144 | O=C(O)C1CC1(C(=O)O)c1ccc([N+](=O)[O-])cc1 (centres undefined)
48 to 51 | CC(C)[C@H](NC(=O)OCc1ccccc1)C(=O)N(CC(=O)O)C1CCCCCC1
150 to 155 | O=S(=O)(CC1CCCC1)c1nc[nH]n1
130 to 131 | CNC(=C[N+](=O)[O-])NCCOc1cccc(CN(C)C)c1
100 to 104 | N#Cc1nn(-c2c(Cl)cc(-c3c(F)c(F)nc(F)c3F)cc2Cl)c(N)c1SC(F)(F)F
220 to 223 | NC(=O)c1cc2ccccc2cc1NC(=S)NC(=O)c1ccccc1
221 to 223 | O=C1COc2ccc([N+](=O)[O-])cc2N1

melting point [°C] | Compound
50 to 55 | CCOCCn1c(C(=O)C2CCN(CCC3(c4ccccn4)CCN(C(=O)c4cc(OC)c(OC)c(OC)c4)C3)CC2)nc2ccccc21 (centres undefined)
175 to 177 | Nc1ccc(C#Cc2ccc(C#Cc3ccccc3)c([N+](=O)[O-])c2)cc1
46 to 48 | Cc1nc2ccccc2n1-c1ccccc1
113 to 114 | CC(C(=O)NCC(=O)O)C(SC(=O)c1ccccc1)SC(=O)c1ccccc1 (centres undefined)
194 | COc1cc(-c2cc3ccccc3[nH]2)ccc1OS(C)(=O)=O
130 to 132 | Cc1cc(-c2noc(CS(C)(=O)=O)n2)ccc1Br
229 to 230 | CC(=O)Nc1ccc2oc(-c3ccc(OCc4ccccc4)c(OCc4ccccc4)c3)c(O)c(=O)c2c1
89 to 90 | COCN1C(C)=C(C(=O)OCOC(=O)C(C)(C)C)C(c2ccccc2)C(C(=O)OCOC(=O)C(C)(C)C)=C1C
164 | O=C(NC(=O)c1ccccc1Cl)Nc1ccc(Cl)c(C(F)(F)F)c1
142 to 143 | CCCCOc1ccc(NC(=O)NCC2(c3ccccc3)CCCCC2)cc1
153 to 155 | CC(C)C(CS(=O)(=O)c1ccc(-c2cccc(CNC(=O)c3nc4ccccc4c(=O)[nH]3)c2)cc1)N(O)C=O (centres undefined)
149 to 152 | CC(=O)Nc1ccc(OC(=O)c2ccc(COC(=O)OC(C)O[N+](=O)[O-])cc2)cc1 (centres undefined)
225 | Nc1ccncc1NC(=S)NCCN1CCC(Nc2nc3ccccc3n2Cc2ccc(F)cc2)C1 (centres undefined)
144 to 145 | C=C(C)COc1cc(C)c(NC=O)c(C)c1C
170 to 171 | CCn1nc(OCC(=O)c2ccc(F)cc2)c(-c2ccc(F)cc2)c1-c1ccc(OC)cc1
159 to 162 | CN1CCC(c2c[nH]c3ccc(NC(=O)c4ccc(F)cc4Cl)cc23)CC1
78 to 79 | CC(C)=CCn1c(C)cnc1[N+](=O)[O-]
157 to 158 | O=C(Nc1ccc(Oc2ccnc(NC3CC3)n2)c2ccccc12)c1cc(F)cc(N2CCCCC2)c1
126 | COc1cc(NC(=O)N(c2ccc(N(C)C)cc2)C2CCCCCC2)c(OC(=O)[C@H](C)NC(=O)OCc2ccccc2)c(C(C)(C)C)c1
220 to 221 | CCCc1nc2cccc(C(O)=S)c2n1Cc1ccc(-c2ccccc2-c2nc(=O)o[nH]2)cc1
96 to 98 | CC(C)Cc1cc(OCC(=O)N(C)C)c2[nH]nc(Nc3nccs3)c2c1
102 to 104 | NS(=O)(=O)c1ncccc1S
134 | COc1ccc(Cl)c(Oc2c(C)nc(N3CCOCC3)nc2Cl)c1

Compound | melting point [°C]
CC1N=C(c2ccccc2Cl)c2cc([N+](=O)[O-])ccc2N(C)C1=O (single isomer, unassigned; (+)) | 156 to 158
O=C1c2ccccc2-n2cnc(-c3nc(CN4Cc5ccccc5C4)no3)c2[C@@H]2CCN12 | 210 to 213
